Results reported in ChEMBL document CHEMBL1201862, “PubChem BioAssay data set” (2004).
The source made the active and inactive calls.

Key:
[1] = biological target: T1, Endoribonuclease toxin MazF (Escherichia coli K-12, UniProt P0AE70); assay: activation of MazEF endoribonuclease cleavage – biochemical, fluorescence, single-stranded RNA substrate, uHTS hits, dose response (AID 588481); type: functional
T1 sequence (P0AE70 whole entry): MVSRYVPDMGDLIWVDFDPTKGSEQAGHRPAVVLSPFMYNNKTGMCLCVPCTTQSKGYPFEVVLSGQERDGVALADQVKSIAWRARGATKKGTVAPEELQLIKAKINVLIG

[2] = biological target: T2, Corticotropin-releasing factor receptor 2/Corticotropin-releasing factor-binding protein (Homo sapiens, UniProt P24387+Q13324); assay: activators of CRF receptor 2 with binding protein – uHTS hits, confirmation (AID 602473); type: functional; conditions: read-out: EC50_Mean
T2 sequence (Q13324 whole entry): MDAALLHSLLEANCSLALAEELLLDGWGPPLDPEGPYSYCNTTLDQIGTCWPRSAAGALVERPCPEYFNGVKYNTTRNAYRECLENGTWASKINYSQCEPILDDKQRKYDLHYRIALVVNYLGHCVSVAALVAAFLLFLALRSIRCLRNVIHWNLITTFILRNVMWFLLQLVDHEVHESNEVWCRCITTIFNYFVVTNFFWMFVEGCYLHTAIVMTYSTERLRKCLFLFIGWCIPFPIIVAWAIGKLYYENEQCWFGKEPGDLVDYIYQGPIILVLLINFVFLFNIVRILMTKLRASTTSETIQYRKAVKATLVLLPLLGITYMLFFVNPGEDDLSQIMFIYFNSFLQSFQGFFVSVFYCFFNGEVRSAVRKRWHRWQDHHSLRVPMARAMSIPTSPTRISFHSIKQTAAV
T2 sequence (P24387 whole entry): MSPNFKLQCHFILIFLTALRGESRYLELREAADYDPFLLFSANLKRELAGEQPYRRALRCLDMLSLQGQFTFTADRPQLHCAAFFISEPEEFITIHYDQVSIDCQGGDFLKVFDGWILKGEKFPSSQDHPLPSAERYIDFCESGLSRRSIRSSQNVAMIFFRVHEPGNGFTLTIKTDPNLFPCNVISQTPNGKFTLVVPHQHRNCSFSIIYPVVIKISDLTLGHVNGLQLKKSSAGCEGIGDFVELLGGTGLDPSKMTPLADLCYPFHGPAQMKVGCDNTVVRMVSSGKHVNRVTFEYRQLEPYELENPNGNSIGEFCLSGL

[3] = biological target: T1, Endoribonuclease toxin MazF; assay: substrate-only fluorescence increase artefacts – biochemical, single-stranded RNase substrate, counter-screen for MazEF activator project, dose response (AID 588502); type: functional
[4] = system: HeLa; assay: viability loss in HeLa cells – cell-based, 24 h, cherry-picked samples, cytotoxicity control, dose response (AID 504726); type: functional; conditions: Homo sapiens;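 also: potency for cytotoxicity as loss of luminescence signal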
[5] = biological target: T3, RNA-binding protein pos-1 (Caenorhabditis elegans, UniProt G5EF15); assay: disruptors of C. elegans POS-1 RNA interaction – biochemical, fluorescence polarization, dose response (AID 1964);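 also: purified POS-1 fused to maltose binding protein made in E. coli; potency of compounds blocking POS-1 binding to fluorescent RNA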
T3 sequence (G5EF15 whole entry): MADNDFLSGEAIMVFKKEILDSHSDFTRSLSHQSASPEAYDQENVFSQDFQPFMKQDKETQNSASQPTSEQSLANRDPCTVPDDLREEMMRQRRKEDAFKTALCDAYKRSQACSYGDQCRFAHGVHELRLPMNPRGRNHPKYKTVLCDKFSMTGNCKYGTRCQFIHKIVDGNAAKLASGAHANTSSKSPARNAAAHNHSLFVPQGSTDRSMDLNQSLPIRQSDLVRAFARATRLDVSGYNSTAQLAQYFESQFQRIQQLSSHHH

[6] = biological target: T4, Zinc finger protein mex-5 (Caenorhabditis elegans, UniProt Q9XUB2); assay: potency of MEX-5 RNA-binding blockers – biochemical, C. elegans, fluorescence polarization, dose response (AID 1960)
T4 sequence (Q9XUB2 whole entry): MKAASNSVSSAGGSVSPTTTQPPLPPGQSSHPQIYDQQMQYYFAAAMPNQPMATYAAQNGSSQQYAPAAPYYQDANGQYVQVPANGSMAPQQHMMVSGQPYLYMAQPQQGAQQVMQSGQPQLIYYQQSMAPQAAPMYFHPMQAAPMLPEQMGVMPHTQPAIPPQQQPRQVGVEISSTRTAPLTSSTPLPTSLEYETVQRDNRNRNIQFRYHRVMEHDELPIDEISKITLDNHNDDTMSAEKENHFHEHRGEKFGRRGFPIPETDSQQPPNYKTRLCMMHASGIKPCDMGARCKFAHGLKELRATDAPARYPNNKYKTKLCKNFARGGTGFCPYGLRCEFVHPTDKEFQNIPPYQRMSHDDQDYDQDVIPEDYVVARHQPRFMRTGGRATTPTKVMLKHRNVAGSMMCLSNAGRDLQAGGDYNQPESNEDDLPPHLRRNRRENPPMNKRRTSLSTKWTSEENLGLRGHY

[7] = biological target: T5, Microphthalmia-associated transcription factor (Homo sapiens, UniProt O75030); assay: reducers of TRPM1 reporter luminescence, concentration series – cell-based, SK-MEL-5, cherry-picked, set 3, MITF inhibitor project, dose response (AID 493073); type: functional;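 also: SK-MEL-5 melanoma cells with luciferase driven by the MITF target TRPM1 promoter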
T5 sequence (O75030 whole entry): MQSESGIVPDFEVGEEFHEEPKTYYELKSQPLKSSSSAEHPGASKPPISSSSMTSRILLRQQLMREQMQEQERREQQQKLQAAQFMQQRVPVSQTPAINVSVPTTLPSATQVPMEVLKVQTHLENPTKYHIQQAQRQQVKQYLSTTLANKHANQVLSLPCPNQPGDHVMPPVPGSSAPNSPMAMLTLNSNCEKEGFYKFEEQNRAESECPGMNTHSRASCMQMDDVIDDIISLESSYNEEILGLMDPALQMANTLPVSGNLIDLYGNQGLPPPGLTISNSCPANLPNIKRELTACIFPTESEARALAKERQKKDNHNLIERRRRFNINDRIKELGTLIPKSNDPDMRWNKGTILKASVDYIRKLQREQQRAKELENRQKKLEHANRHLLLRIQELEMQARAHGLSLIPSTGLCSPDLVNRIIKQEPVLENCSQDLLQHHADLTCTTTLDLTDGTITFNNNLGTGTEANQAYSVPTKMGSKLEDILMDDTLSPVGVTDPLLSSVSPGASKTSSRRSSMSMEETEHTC

[8] = system: A-375; assay: proliferation inhibition in MITF-low A375 cells – cell-based, cherry-pick samples, set 2, counter-screen for MITF modulator project, dose response (AID 540335); type: functional; conditions: Homo sapiens
[9] = biological target: T6, Ubiquitin-conjugating enzyme E2 N (Homo sapiens, UniProt P61088); type: functional;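 also: Dose-response confirmation in a TR-FRET assay detecting UBC13-driven polyubiquitin chain formation, inhibition measured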
T6 sequence (P61088 whole entry): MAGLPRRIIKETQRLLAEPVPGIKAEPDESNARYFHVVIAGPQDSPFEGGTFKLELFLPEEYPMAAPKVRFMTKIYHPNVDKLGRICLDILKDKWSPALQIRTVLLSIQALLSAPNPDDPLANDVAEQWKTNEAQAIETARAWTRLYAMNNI

[10] = biological target: T7, DNA repair protein RAD52 homolog (Homo sapiens, UniProt P43351); type: functional, biochemical
T7 sequence (P43351 whole entry): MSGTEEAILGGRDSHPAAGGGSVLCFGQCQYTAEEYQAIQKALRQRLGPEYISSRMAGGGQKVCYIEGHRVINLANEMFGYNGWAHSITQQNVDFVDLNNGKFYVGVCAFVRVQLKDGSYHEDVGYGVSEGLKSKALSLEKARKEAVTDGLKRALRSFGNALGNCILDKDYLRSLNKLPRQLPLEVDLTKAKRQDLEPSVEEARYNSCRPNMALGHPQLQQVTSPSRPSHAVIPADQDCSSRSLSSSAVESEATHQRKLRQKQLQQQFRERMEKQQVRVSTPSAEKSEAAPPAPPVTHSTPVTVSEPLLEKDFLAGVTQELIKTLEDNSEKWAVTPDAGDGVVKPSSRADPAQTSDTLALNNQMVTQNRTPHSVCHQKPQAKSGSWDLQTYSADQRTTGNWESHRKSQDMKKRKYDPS

[11] = biological target: T8, Nuclear receptor subfamily 0 group B member 1 (Homo sapiens, UniProt P51843); assay: Luminescence-based cell-based high throughput dose response assay for inhibitors of the orphan nuclear receptor subfamily 0, group B, member 1 (DAX1; NR0B1). [Related pubchem assays (depositor defined):AID504766, AID504790]; type: functional
T8 sequence (P51843 whole entry): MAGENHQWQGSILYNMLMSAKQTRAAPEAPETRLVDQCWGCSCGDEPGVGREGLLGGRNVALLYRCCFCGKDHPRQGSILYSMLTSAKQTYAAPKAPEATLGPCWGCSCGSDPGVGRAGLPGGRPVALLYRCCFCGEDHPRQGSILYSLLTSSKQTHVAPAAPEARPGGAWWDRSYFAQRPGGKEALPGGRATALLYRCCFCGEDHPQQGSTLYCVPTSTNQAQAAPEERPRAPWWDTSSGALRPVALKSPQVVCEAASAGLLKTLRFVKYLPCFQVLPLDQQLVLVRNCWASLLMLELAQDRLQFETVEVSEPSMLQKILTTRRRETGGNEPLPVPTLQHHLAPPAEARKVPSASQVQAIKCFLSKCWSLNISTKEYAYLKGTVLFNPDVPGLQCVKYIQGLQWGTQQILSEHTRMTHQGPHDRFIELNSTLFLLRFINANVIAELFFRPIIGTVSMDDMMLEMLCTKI

[12] = system: HEK293; assay: cells; type: functional, cell-based; conditions: Homo sapiens
[13] = HEK-293T viability loss, compound-treated – cell-based, uHTS hits, cytotoxicity control for B/T-cell NF-kB inhibitor project, dose response (AID 489019); type: functional;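 also: IC50 reflects cytotoxicity as loss of cell viability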
[14] = off-target signal loss in HeLa-CEM21 co-culture – HeLa F-luc CTL cells, cherry-picked, counter-screen for HIV-1 Env fusion inhibitor project, dose response (AID 652040); type: functional, cell-based;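 also: potency for signal decrease marking cytotoxic or nonspecific inhibition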
[15] = blockers of HIV-1 ZM109 envelope-driven cell-cell fusion – HeLa effector, CEM target cells, luciferase, cherry-pick, dose response (AID 652058); type: functional, cell-based;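 also: luciferase signal from HIV-1 Env mediated cell-cell fusion of effector and target cells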
[16] = blockers of HIV-1 envelope-mediated cell-cell fusion – cherry-pick, dose response (AID 652057); type: functional, cell-based
[17] = biological target: Paired box protein Pax-8 (Homo sapiens, UniProt Q06710); assay: PAX8 transcriptional activity inhibition in RMG-I – RMG-I cells, luciferase, cherry-pick, dose response (AID 687027); type: functional, cell-based;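 also: luciferase reporter driven by Pax8 target thyroperoxidase promoter measured by SteadyGlo luminescence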
Paired box protein Pax-8, sequence (Q06710 whole entry): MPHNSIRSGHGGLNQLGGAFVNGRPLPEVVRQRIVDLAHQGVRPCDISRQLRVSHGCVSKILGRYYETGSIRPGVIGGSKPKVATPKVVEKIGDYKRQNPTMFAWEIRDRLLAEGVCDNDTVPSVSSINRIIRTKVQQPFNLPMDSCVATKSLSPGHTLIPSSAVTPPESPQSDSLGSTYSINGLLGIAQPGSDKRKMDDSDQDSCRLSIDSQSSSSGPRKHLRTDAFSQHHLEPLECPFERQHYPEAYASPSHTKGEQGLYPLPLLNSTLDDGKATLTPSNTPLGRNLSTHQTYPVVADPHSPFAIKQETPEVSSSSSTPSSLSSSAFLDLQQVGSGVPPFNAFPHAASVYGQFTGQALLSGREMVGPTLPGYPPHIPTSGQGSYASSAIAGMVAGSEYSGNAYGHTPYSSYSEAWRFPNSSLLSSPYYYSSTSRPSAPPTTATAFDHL

[18] = Luminescence Cell-Based Dose Retest to Confirm Inhibitors of Cancer Stem Cells. [Related pubchem assays (depositor defined):AID2717, AID2721]; type: functional; conditions: Homo sapiens
[19] = HIV-1 AD8 envelope cell-cell fusion blockers – cherry-pick, dose response (AID 652062); type: functional, cell-based;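 also: luciferase signal from cell-cell fusion driven by HIV-1 clade B AD8 Env; potency is for inhibitors of fusion seen as a drop in luminescence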
[20] = system: Jurkat; assay: blockers of NF-kB activation in T cells – Jurkat, luciferase reporter, luminescence, B- and T-cell, dose response (AID 489004); type: functional, cell-based; conditions: Homo sapiens;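 also: NF-kB luciferase reporter Jurkat cells stimulated with PMA plus ionomycin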
[21] = viability loss in CEM21 cells – cell-based, CellTiter-Glo luminescence, cherry-picked, cytotoxicity control for viral fusion inhibitor project, dose response (AID 652042); type: functional;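 also: potency for signal decrease meaning cytotoxicity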
[22] = cells; type: functional, cell-based
[23] = cells; type: functional, cell-based; remark: listed apart in the source
[24] = Luminescence Cell-Based Dose Confirmation HTS to Identify Activators of 5'UTR Stem-Loop Driven Alpha-Synuclein mRNA Translation in H4 Neuroglioblastoma Cells. [Related pubchem assays: 1829 (Project Summary), 1814 (Primary HTS)]; type: functional
[25] = system: H4; assay: Luminescence Cell-Based Dose Response HTS to Identify Activators of 5'UTR Stem-Loop Driven Prion Protein mRNA Translation in H4 Neuroglioblastoma Cells. [Related pubchem assays: 1829 (Project Summary), 1814 (Primary HTS)]; type: functional; conditions: Homo sapiens
[26] = Luminescence Cell-Based Dose Response HTS to Identify Activators of Luciferase Translation or Activity in H4 […] Cells. [Related pubchem assays: 1829 (Project Summary), 1814 (Primary HTS)]; type: functional
[27] = biological target: Beta-2 adrenergic receptor (Homo sapiens, UniProt P07550); assay: ADRB2 activation measured by internalization – cell-based, FAP fluorogen, flow cytometry, cherry pick 1, dose response (AID 588763); type: functional
Beta-2 adrenergic receptor, sequence (P07550 whole entry): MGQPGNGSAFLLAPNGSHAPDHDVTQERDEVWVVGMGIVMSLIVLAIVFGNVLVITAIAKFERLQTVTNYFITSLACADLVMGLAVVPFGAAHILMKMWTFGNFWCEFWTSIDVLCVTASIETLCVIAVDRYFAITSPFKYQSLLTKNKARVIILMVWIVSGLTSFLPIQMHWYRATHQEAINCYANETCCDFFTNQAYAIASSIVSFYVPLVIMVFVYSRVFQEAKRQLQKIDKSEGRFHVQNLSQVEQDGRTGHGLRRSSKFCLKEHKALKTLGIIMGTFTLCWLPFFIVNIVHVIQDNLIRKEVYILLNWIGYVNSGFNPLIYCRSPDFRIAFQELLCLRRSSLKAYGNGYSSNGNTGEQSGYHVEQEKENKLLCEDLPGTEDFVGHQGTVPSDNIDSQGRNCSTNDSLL

With `CSc1nc(-c2ccc(N(C)C)cc2)c(C#N)c(=O)n1C` the EC50 [1] was > 99 µM (inactive), the EC50 [2] was 7.08 µM (active) and the EC50 [3] was > 99 µM (inactive).
For `Cc1ccc(N=Nc2c(O)[nH]c3ccc(F)cc23)cc1`, the EC50 [1] was > 99 µM (inactive), the AC50 [4] was 251 µM (active) and the EC50 [3] was 29.9 µM (inactive). For the same compound, the EC50 [5] was > 300 µM (inconclusive) and the EC50 [6] was > 300 µM (inconclusive).
In the case of `Cc1c(CCOC(=O)c2ccc(Cl)cc2Cl)sc[n+]1CC(=O)c1ccc(Br)cc1`, the AC50 [7] is reported as 19.8 µM (active), the AC50 [8] is reported as 23.5 µM (active) and the IC50 [9] is reported as > 20 µM (inactive). The AC50 [10] was 13 µM (active).
For `CN(C)S(=O)(=O)c1cc(NC2CC(=O)N(c3ccc(F)cc3)C2=O)ccc1Cl` (stereo not drawn), the IC50 [11] was > 67.5 µM (inactive) and the IC50 [12] was > 67.5 µM (inactive).
With `C[C@@H]1O[C@@H](O[C@@H]2C=C3CC[C@@H]4C(CC[C@]5(C)[C@@H](c6ccc(=O)oc6)CC[C@]45O)[C@@]3(C)CC2)[C@H](O)[C@H](O)[C@H]1O` (stereo partly drawn) the IC50 [13] was > 80 µM (inactive), the AC50 [14] was < 0.26 µM (active) and the AC50 [15] was 0.319 µM (active). The AC50 [16] was 0.799 µM (active), the AC50 [17] was < 0.26 µM (active) and the AC50 [18] was < 0.16 µM (active). The AC50 [19] was 0.54 µM (active), the IC50 [20] was 0.33 µM (active) and the AC50 [21] was 0.613 µM (active).
For `COc1ccc(C(=O)NC2=Nc3ccccc3N=C(C)C2c2ccccc2)cc1` (stereo not drawn), the EC50 [22] was 34.7 µM (active), the EC50 [23] was 78.6 µM (active) and the EC50 [24] was 9.66 µM (active). For the same compound, the EC50 [25] was 18.9 µM (active), the IC50 [11] was > 67.5 µM (inactive) and the IC50 [12] was 3.47 µM (active). The EC50 [26] was 40.7 µM (active).
For `O=C(Nc1ccc2oc(-c3ccccc3)nc2c1)c1cc(-n2cnnc2)ccc1Cl`, the EC50 [1] was > 99 µM (inactive) and the EC50 [3] was > 99 µM (inactive).
With `O=C1C2CCCCN2C(=O)N1CCCCN1CCN(c2cccc(C(F)(F)F)c2)CC1` (stereo not drawn) the EC50 [27] was 2.52 µM (active).
